Data from PMC9401038 (Angewandte Chemie (International Ed. in English), 2022).
Values joined by “and” are separate entries in the source; they are usually repeats but may differ in a detail not shown here. Equal values may be shown once.

Columns and labels:
[1] = test system: zebrafish larvae cardiac rhythm; assay: Cardiac frequency monitoring in zebrafish larvae under dark/380 nm/550 nm; format: in vivo; settings: 10 μM, 7 dpf larvae, dark and both illumination conditions equivalent
β1‐AR = β1‐AR (Homo sapiens, UniProt P08588); assay: β1‐AR functional cAMP assay; format: cell-based
[2] = UV/Vis photochemical characterization; format: physicochemical
[3] = Photostationary state quantification by 1H‐NMR; format: physicochemical; settings: 12 °C, 100 μM in D2O
β2‐AR = β2‐AR (Homo sapiens, UniProt P07550); assay: β2‐AR inhibition of cimaterol-stimulated cAMP in HEK293 H188 M1 cells; settings: in the dark and upon illumination at 380 nm, cimaterol 3 nM
[4] = 50 μM in Epac buffer+0.5 % DMSO, 25–28 °C

β1‐AR, sequence (P08588 whole entry): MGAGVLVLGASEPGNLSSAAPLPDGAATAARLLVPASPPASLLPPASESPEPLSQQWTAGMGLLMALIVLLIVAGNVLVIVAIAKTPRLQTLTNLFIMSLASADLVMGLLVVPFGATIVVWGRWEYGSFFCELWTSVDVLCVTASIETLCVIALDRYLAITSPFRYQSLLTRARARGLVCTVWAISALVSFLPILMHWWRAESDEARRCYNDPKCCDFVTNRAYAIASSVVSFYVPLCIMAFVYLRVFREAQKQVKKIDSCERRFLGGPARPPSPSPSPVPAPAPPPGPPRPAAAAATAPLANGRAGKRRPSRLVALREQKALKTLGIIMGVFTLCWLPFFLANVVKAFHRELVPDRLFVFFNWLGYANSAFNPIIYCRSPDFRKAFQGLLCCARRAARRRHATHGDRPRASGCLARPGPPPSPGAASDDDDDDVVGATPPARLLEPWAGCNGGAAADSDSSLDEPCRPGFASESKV
β2‐AR, sequence (P07550 whole entry): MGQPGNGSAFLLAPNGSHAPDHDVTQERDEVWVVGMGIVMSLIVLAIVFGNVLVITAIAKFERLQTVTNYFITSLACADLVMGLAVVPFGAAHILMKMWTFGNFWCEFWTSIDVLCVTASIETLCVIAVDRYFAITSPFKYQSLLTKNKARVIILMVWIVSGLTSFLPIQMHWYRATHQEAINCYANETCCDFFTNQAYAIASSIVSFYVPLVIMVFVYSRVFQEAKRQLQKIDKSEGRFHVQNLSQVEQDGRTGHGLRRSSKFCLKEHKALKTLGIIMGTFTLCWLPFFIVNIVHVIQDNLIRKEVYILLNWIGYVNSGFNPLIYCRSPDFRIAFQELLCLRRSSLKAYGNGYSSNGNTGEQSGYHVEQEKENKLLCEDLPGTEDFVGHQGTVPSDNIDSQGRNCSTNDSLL

Compound | cardiac rhythm [1] | EC50 (β1‐AR; EC50 DARK, dark (trans isomer)) | EC50 (β1‐AR; EC50 LIGHT, constant violet light 380 nm (cis isomer)) | β1/β2 ratio DARK (β1‐AR; dark, ratio of 1 implies no selectivity towards β1‐AR) | functional profile towards β1‐AR (β1‐AR; two β1‐AR expression levels) | β1/β2 ratio LIGHT (β1‐AR; violet light 380 nm, ratio of 1 implies no selectivity) | PPS (Photoinduced Potency Shift) (β1‐AR; β1‐AR, relation between EC50 in light and dark) | τ cis→trans [2] | λ n‐π* (cis) [2, 4] | λ π‐π* (trans) [2, 4] | t 1/2 (thermal relaxation of cis isomer) ([2]; 50 μM in Epac buffer+0.5 % DMSO, 28 °C, after 3 min 365 nm) | τ trans→cis ([2]; 365 nm, CoolLED 5 % intensity (0.1 mW mm^−2), 50 μM in Epac buffer+0.5 % DMSO) | PSS365 ([3]; after 365 nm illumination) | PSS530 ([3]; after 525 nm illumination) | IC50 values against β2‐AR (β2‐AR)
COc1ccccc1OCCNCC(O)COc1cccc2[nH]c3ccccc3c12 (stereo not drawn) [Carvedilol, carvedilol] | significant reduction in the cardiac rhythm | – | – | – | – | – | – | – | – | – | – | – | – | – | –
CC(C)NC[C@H](O)COc1ccc(/N=N/c2ccccc2)cc1 [pAzo‐1] | – | 15.1 nM | 331 nM | 161.8 | low efficacy partial agonists | 8.6 | 20.08 | 57.6 s⁻¹ | 430 nm | 346 nm | 67.6 h | 4.4 s⁻¹ | 95 %cis | 76.3 % trans and 76 % trans | within the μM range
